Experimental data reported in PubChem BioAssay AID330 (DTP/NCI, 2004).
Values joined by “and” are separate entries in the source; they are usually repeats but may differ in a detail not shown here. Identical values can stand only once. Toxic doses and inconclusive results are not listed.

Test system: P388 leukemia ip, CD2F1 mice, survival T/C
Assay: NCI In Vivo Anticancer Drug Screen. Data for tumor model P388 Leukemia (intraperitoneal) in CD2F1 (CDF1) mice
Conditions: endpoint: median survival time, higher = longer survival
Outline: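 Mice carrying the transplanted tumor received test compound or vehicle. Survival was recorded in each group, and the value is the treated-group measurement divided by that of the vehicle-treated control group.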

[1] = dose: 100.0 mg/kg/injection, schedule: Q04DX003 (ip), vehicle: saline
[2] = dose: 200.0 mg/kg/injection, schedule: Q04DX003 (ip), vehicle: saline
[3] = dose: 50.0 mg/kg/injection, schedule: Q01DX005 (ip), vehicle: Klucel (hydroxypropylcellulose) (HPC)
[4] = dose: 100.0 mg/kg/injection, schedule: Q01DX005 (ip), vehicle: Klucel (hydroxypropylcellulose) (HPC)
[5] = dose: 50.0 mg/kg/injection, schedule: Q01DX009 (ip), vehicle: saline
[6] = dose: 100.0 mg/kg/injection, schedule: Q01DX009 (ip), vehicle: saline
[7] = dose: 200.0 mg/kg/injection, schedule: Q01DX009 (ip), vehicle: saline
[8] = dose: 50.0 mg/kg/injection, schedule: Q01DX009 (ip), vehicle: saline with Tween-80

Compound: COc1ccc(-n2cnc3[nH]ncc3c2=O)cc1
- T/C (dose: 7.5 mg/kg/injection, schedule: Q01DX005 (ip), vehicle: Klucel (hydroxypropylcellulose) (HPC)): 104 % of control
- T/C (dose: 15.0 mg/kg/injection, schedule: Q01DX005 (ip), vehicle: Klucel (hydroxypropylcellulose) (HPC)): 106 % of control
- T/C (dose: 30.0 mg/kg/injection, schedule: Q01DX005 (ip), vehicle: Klucel (hydroxypropylcellulose) (HPC)): 110 % of control

Compound: COc1ccccc1C1NC(c2ccccc2OC)C2CCCC1C2=O (configuration not stated)
- T/C [1]: 88 % of control
- T/C [2]: 88 % of control
- T/C (dose: 400.0 mg/kg/injection, schedule: Q04DX003 (ip), vehicle: saline): 90 % of control

Compound: Nc1nc2nc(/N=N/SCCC(=O)O)[nH]c2c(=O)[nH]1
- T/C (dose: 50.0 mg/kg/injection, schedule: Q01DX005 (ip), vehicle: saline with Tween-80): 105 % of control
- T/C (dose: 100.0 mg/kg/injection, schedule: Q01DX005 (ip), vehicle: saline with Tween-80): 108 % of control

Compound: CS1(=O)=NC(=NC#N)c2ccccc21 (configuration not stated)
- T/C (dose: 50.0 mg/kg/injection, schedule: Q01DX009 (ip), vehicle: Klucel (hydroxypropylcellulose) (HPC)): 101 % of control
- T/C (dose: 100.0 mg/kg/injection, schedule: Q01DX009 (ip), vehicle: Klucel (hydroxypropylcellulose) (HPC)): 94 % of control

Compound: CC1CCC(C(=O)C(Cl)Cc2ccccc2)CC1 (configuration not stated)
- T/C [3]: 88 % of control
- T/C [4]: 92 % of control

Compound: Cc1cc2cc(Cl)c(CN)cc2[nH]1
- T/C (dose: 25.0 mg/kg/injection, schedule: Q04DX003 (ip), vehicle: Klucel (hydroxypropylcellulose) (HPC)): 97 % of control
- T/C (dose: 50.0 mg/kg/injection, schedule: Q04DX003 (ip), vehicle: Klucel (hydroxypropylcellulose) (HPC)): 102 % of control
- T/C (dose: 100.0 mg/kg/injection, schedule: Q04DX003 (ip), vehicle: Klucel (hydroxypropylcellulose) (HPC)): 105 % of control and 107 % of control

Compound: CC(=O)N(C)N
- T/C (dose: 60.0 mg/kg/injection, schedule: Q01DX005 (ip), vehicle: saline): 107 % of control
- T/C (dose: 120.0 mg/kg/injection, schedule: Q01DX005 (ip), vehicle: saline): 102 % of control
- T/C (dose: 240.0 mg/kg/injection, schedule: Q01DX005 (ip), vehicle: saline): 93 % of control

Compound: O=C1c2ccccc2NC(O)c2cccn21 (configuration not stated)
- T/C (dose: 0.1 mg/kg/injection, schedule: Q01DX005 (ip), vehicle: water): 89 % of control
- T/C (dose: 0.2 mg/kg/injection, schedule: Q01DX005 (ip), vehicle: water): 91 % of control
- T/C (dose: 0.4 mg/kg/injection, schedule: Q01DX005 (ip), vehicle: water): 93 % of control
- T/C (dose: 0.8 mg/kg/injection, schedule: Q01DX005 (ip), vehicle: water): 91 % of control
- T/C (dose: 1.6 mg/kg/injection, schedule: Q01DX005 (ip), vehicle: water): 93 % of control
- T/C (dose: 5.0 mg/kg/injection, schedule: Q01DX005 (ip), vehicle: distilled water + Tween-80): 99 % of control
- T/C (dose: 10.0 mg/kg/injection, schedule: Q01DX005 (ip), vehicle: distilled water + Tween-80): 99 % of control
- T/C (dose: 20.0 mg/kg/injection, schedule: Q01DX005 (ip), vehicle: distilled water + Tween-80): 99 % of control
- T/C (dose: 40.0 mg/kg/injection, schedule: Q01DX005 (ip), vehicle: distilled water + Tween-80): 100 % of control
- T/C (dose: 80.0 mg/kg/injection, schedule: Q01DX005 (ip), vehicle: distilled water + Tween-80): 95 % of control

Compound: CCCCCCCCCCCCCCCCCC(N)=S
- T/C (dose: 12.5 mg/kg/injection, schedule: Q01DX005 (ip), vehicle: Klucel + Tween-80): 95 % of control
- T/C (dose: 25.0 mg/kg/injection, schedule: Q01DX005 (ip), vehicle: Klucel + Tween-80): 95 % of control
- T/C (dose: 50.0 mg/kg/injection, schedule: Q01DX005 (ip), vehicle: Klucel + Tween-80): 86 % of control and 94 % of control
- T/C (dose: 200.0 mg/kg/injection, schedule: Q01DX005 (ip), vehicle: Klucel + Tween-80): 87 % of control

Compound: OC1(C(F)(F)F)NN2C=CC=CC2=NO1 (configuration not stated)
- T/C (dose: 60.0 mg/kg/injection, schedule: Q01DX005 (ip), vehicle: saline with Tween-80): 95 % of control
- T/C (dose: 120.0 mg/kg/injection, schedule: Q01DX005 (ip), vehicle: saline with Tween-80): 96 % of control
- T/C (dose: 240.0 mg/kg/injection, schedule: Q01DX005 (ip), vehicle: saline with Tween-80): 100 % of control

Compound: Cc1cc(Cl)ccc1N1C(=O)[N+](C)(C)N=C1[O-]
- T/C [1]: 103 % of control
- T/C [2]: 103 % of control

Compound: CC12CC3CC(O)(C1)CC(O)(C3)C2
- T/C [5]: 100 % of control
- T/C [6]: 100 % of control
- T/C [7]: 102 % of control

Compound: O=[N+]([O-])c1cc(NC(=S)SCc2ccccc2)ccc1Cl
- T/C [5]: 108 % of control
- T/C (dose: 50.0 mg/kg/injection, schedule: Q01DX009 (ip), vehicle: suspension in saline): 92 % of control
- T/C [6]: 115 % of control
- T/C [7]: 108 % of control
- T/C (dose: 200.0 mg/kg/injection, schedule: Q01DX009 (ip), vehicle: suspension in saline): 92 % of control

Compound: Nc1ccc2c(Cl)cc(Cl)cc2c1
- T/C [8]: 100 % of control
- T/C (dose: 100.0 mg/kg/injection, schedule: Q01DX009 (ip), vehicle: saline with Tween-80): 104 % of control

Compound: C=C1C(=O)OC2/C=C(/CO)CC/C=C(/C=O)CC(O)C12 (configuration not stated)
- T/C (dose: 1.89 mg/kg/injection, schedule: Q01DX005 (ip), vehicle: saline + Tween-80 + alcohol): 101 % of control
- T/C (dose: 3.75 mg/kg/injection, schedule: Q01DX005 (ip), vehicle: saline + Tween-80 + alcohol): 100 % of control
- T/C (dose: 7.5 mg/kg/injection, schedule: Q01DX005 (ip), vehicle: saline + Tween-80 + alcohol): 101 % of control
- T/C (dose: 15.0 mg/kg/injection, schedule: Q01DX005 (ip), vehicle: saline + Tween-80 + alcohol): 99 % of control

Compound: Nc1ccc(CNC(=O)COc2cccc(Cl)c2)cc1
- T/C (dose: 100.0 mg/kg/injection, schedule: Q04DX002 (ip), vehicle: Klucel (hydroxypropylcellulose) (HPC)): 102 % of control
- T/C (dose: 200.0 mg/kg/injection, schedule: Q04DX002 (ip), vehicle: Klucel (hydroxypropylcellulose) (HPC)): 108 % of control
- T/C (dose: 400.0 mg/kg/injection, schedule: Q04DX002 (ip), vehicle: Klucel (hydroxypropylcellulose) (HPC)): 96 % of control

Compound: Fc1ccc(C2SCCCS2)cc1
- T/C [5]: 92 % of control
- T/C [6]: 92 % of control
- T/C [7]: 101 % of control

Compound: COc1ccc(N/N=C(/c2ccccc2)c2noc(-c3ccccc3)n2)cc1
- T/C [3]: 101 % of control
- T/C [4]: 94 % of control
- T/C (dose: 200.0 mg/kg/injection, schedule: Q01DX005 (ip), vehicle: Klucel (hydroxypropylcellulose) (HPC)): 93 % of control

Compound: Cc1ccc(NC(=O)N2c3ccccc3SC2c2ccco2)c(C)c1 (configuration not stated)
- T/C (dose: 12.5 mg/kg/injection, schedule: Q01DX009 (ip), vehicle: saline with Tween-80): 92 % of control
- T/C (dose: 25.0 mg/kg/injection, schedule: Q01DX009 (ip), vehicle: saline with Tween-80): 103 % of control
- T/C [8]: 86 % of control and 92 % of control

Compound: CCCCOc1ccc(C(=O)N/N=C(\C)[C@]2(O)Cc3c(O)c4c(c(O)c3[C@@H](OC3CC(N)C(O)C(C)O3)C2)C(=O)c2c(OC)cccc2C4=O)cc1 (some centres not stated)
- T/C (dose: 0.12 mg/kg/injection, schedule: Q01DX009 (ip), vehicle: water): 115 % of control
- T/C (dose: 0.5 mg/kg/injection, schedule: Q01DX009 (ip), vehicle: water): 150 % of control and 151 % of control
- T/C (dose: 1.0 mg/kg/injection, schedule: Q01DX009 (ip), vehicle: water): 152 % of control and 160 % of control
- T/C (dose: 2.0 mg/kg/injection, schedule: Q01DX009 (ip), vehicle: water): 160 % of control and 179 % of control
- T/C (dose: 5.0 mg/kg/injection, schedule: Q01DX001 (ip), vehicle: water): 153 % of control
- T/C (dose: 20.0 mg/kg/injection, schedule: Q01DX001 (ip), vehicle: water): 106 % of control

Compound: NC1=NC(c2ccccc2)C=C(c2ccccc2)N1 (configuration not stated)
- T/C (dose: 12.5 mg/kg/injection, schedule: Q04DX002 (ip), vehicle: saline with Tween-80): 104 % of control
- T/C (dose: 25.0 mg/kg/injection, schedule: Q04DX002 (ip), vehicle: saline with Tween-80): 103 % of control
- T/C (dose: 50.0 mg/kg/injection, schedule: Q04DX002 (ip), vehicle: saline with Tween-80): 103 % of control

Compound: CCCCCCC1N=C(N)N=C(N)N1c1cccc(Cl)c1 (configuration not stated)
- T/C (dose: 12.5 mg/kg/injection, schedule: Q01DX005 (ip), vehicle: Klucel (hydroxypropylcellulose) (HPC)): 118 % of control
- T/C (dose: 25.0 mg/kg/injection, schedule: Q01DX005 (ip), vehicle: Klucel (hydroxypropylcellulose) (HPC)): 114 % of control

Compound: COc1ccc(CNNc2ccc(NC(C)=O)cc2N)cc1
- T/C (dose: 25.0 mg/kg/injection, schedule: Q04DX003 (ip), vehicle: saline with Tween-80): 90 % of control
- T/C (dose: 50.0 mg/kg/injection, schedule: Q04DX003 (ip), vehicle: saline with Tween-80): 88 % of control
- T/C (dose: 100.0 mg/kg/injection, schedule: Q04DX003 (ip), vehicle: saline with Tween-80): 105 % of control
